Results on 8 molecules are retold here after patent publication US11111227B2, “Rotigotine behenate, and manufacturing method and application thereof” (Shandong Luye Pharmaceutical Co., Ltd., priority 2016, dated 2021).

The nature of series [1]: Test Example 3: pharmacokinetic performance of each drug injection in rats (intramuscular). Type of series: in vivo. The protocol:
Test Example 3: Pharmacokinetic Performance of Each Drug Injection in Rats
Male SD rats (provided by Shandong Luye Pharma Group Ltd.), weighing 190-280 g, 12 rats, 3 rats in each group.
Vehicle containing 1% of HPMC was prepared, and rotigotine arachidate, rotigotine behenate and rotigotine lignocerate were added to the vehicle respectively to provide 10 mg/ml of suspensions (calculated as rotigotine).
The experimental animals were randomly divided into rotigotine arachidate group (A), rotigotine behenate group (B) and rotigotine lignocerate group (C), with 3 rats in each group, The rats in Groups A, B and C were intramuscularly injected with the corresponding drug (2 ml/kg).
Blood samples were taken from the eyelids of the rats in Groups A, B, and C before the administration (0 h) and at 0.25 h, 1 h, 6 h, 1 d, 2 d, 3 d, 5 d, 7 d, 9 d, 11 d, 14 d, 16 d, 18 d, 21 d, 25 d, 28 d, 30 d, 35 d, 39 d, 42 d after administration. Each blood sample was placed into heparinized EP tube, and was immediately centrifuged (3000 rpm) for 10 min. The plasma was separated and stored at −35° C. for testing.

Series [2] is described as follows: Test Example 1: pharmacokinetic performance of rotigotine caprylate injection in rats (intramuscular). Type of series: in vivo. The protocol:
Test Example 1: Pharmacokinetic Performance of Rotigotine Caprylate Injection in Rats
Rotigotine caprylate: prepared according to Comparative Example 1
Male SD rats (provided by Shandong Luye Pharma Group Ltd.), weighing 190-280 g, 3 rats.
Vehicle containing 1% of HPMC was prepared, and rotigotine caprylate was added to the vehicle to provide a 10 mg/ml of suspension (calculated as rotigotine). Three rats were intramuscularly injected with 2 mL/kg of the drug. Blood samples were taken from the eyelids of the rats before the administration (0 h) and at 0.25 h, 1 h, 6 h, 1 d, 2 d, 3 d, 5 d, 7 d, 9 d, 11 d, 14 d, 16 d, 18 d, 21 d, 24 d, 28 d after administration. Each blood sample was placed into heparinized EP tube, and was immediately centrifuged (3000 rpm) for 10 min. The plasma was separated and stored at −35° C. for testing.

Series [3] in a line: Test Example 2: pharmacokinetic performance of each drug injection in rats (intramuscular, groups A-C). In kind it is in vivo. The protocol:
Test Example 2: Pharmacokinetic Performance of Each Drug Injection in Rats
(§1) Experimental animals: Male SD rats (provided by Shandong Luye Pharma Group Ltd.), weighing 190-280 g, 12 rats in total, 3 rats in each group.
(§2) Vehicle containing 1% of HPMC was prepared, and rotigotine oleate, rotigotine palmitate and rotigotine stearate were added to the vehicle respectively to provide 10 mg/ml of suspensions (calculated as rotigotine). Rotigotine hydrochloride was formulated as a 0.36 mg/ml injection (calculated as rotigotine) in normal saline.
(§3) The experimental animals were randomly divided into rotigotine oleate group (A), rotigotine palmitate group (B), rotigotine stearate group (C) and rotigotine hydrochloride group (D), with 3 rats in each group. The rats in Groups A, B, and C were intramuscularly injected with the corresponding drug (2 ml/kg), and the rats in group D were injected intravenously with the corresponding drug (2 ml/kg).
Blood samples were taken from the eyelids of the rats in Groups A, B, and C before the administration (0 h) and at 0.25 h, 1 h, 6 h, 1 d, 2 d, 3 d, 5 d, 7 d, 9 d, 11 d, 14 d, 16 d, 18 d, 21 d, 24 d, 28 d after administration. Each sample was placed into heparinized EP tube, and was immediately centrifuged (3000 rpm) for 10 min. The plasma was separated and stored at −35° C. for testing.

A short description of series [4]: Test Example 2: rotigotine hydrochloride intravenous injection in rats (group D). In kind it is in vivo. The note with it: male, SD, rat, plasma, rotigotine hydrochloride intravenous 2 ml/kg of 0.36 mg/ml injection, read-out: Blood concentration in rats. The protocol:
Rotigotine hydrochloride: purity of 99.83%
as §1, §2, §3
Blood samples were taken from the eyelids of the rats in Group D before the administration (0 h) and at 3 min, 10 min, 0.25 h, 0.5 h, 1 h, 1.5 h, 2 h, 4 h, 6 h, 8 h, and 12 h after administration. Each blood sample was placed into heparinized EP tube, and was immediately centrifuged (3000 rpm) for 10 min. The plasma was separated and stored at −35° C. for testing.

For series [5] the following is noted: first-pass effect of the liver; cited from earlier work.

SMILES strings stand for the structures.

For the molecule `CCCCCCCCCCCCCCCCCCCC(=O)Oc1cccc2c1CCC(N(CCC)CCc1cccs1)C2` (stereo not shown) [Rotigotine arachidate], the “Maintenance of the effective blood concentration” value (“Maintenance” below) in series [1] is reported as “maintained only for a short period of time”.
Take `CCCCCCCCCCCCCCCCCCCCCC(=O)Oc1cccc2c1CC[C@H](N(CCC)CCc1cccs1)C2` [Rotigotine behenate]: the “Maintenance” value in series [1] is listed as “more than two weeks”.
Turning to `CCCCCCCC(=O)Oc1cccc2c1CC[C@H](N(CCC)CCc1cccs1)C2` [Rotigotine caprylate], the “Maintenance” value in series [2] is listed as “maintained only for a short period of time”.
On to `CCCCCCCCCCCCCCCCCCCCCCCC(=O)Oc1cccc2c1CCC(N(CCC)CCc1cccs1)C2` (stereo not shown) [Rotigotine lignocerate], for which the “Maintenance” value in series [1] is “cannot be maintained for more than two weeks”.
Turning to `CCCCCCCC/C=C\CCCCCCCC(=O)Oc1cccc2c1CCC(N(CCC)CCc1cccs1)C2` (stereo not shown) [Rotigotine oleate], the “Maintenance” value in series [3] is “maintained only for a short period of time”.
For `CCCCCCCCCCCCCCCC(=O)Oc1cccc2c1CCC(N(CCC)CCc1cccs1)C2` (stereo not shown) [Rotigotine palmitate], the “Maintenance” value in series [3] is “no more than two weeks”.
Same read-out and setting: the result for `CCCCCCCCCCCCCCCCCC(=O)Oc1cccc2c1CCC(N(CCC)CCc1cccs1)C2` (stereo not shown) [Rotigotine stearate] reads “no more than two weeks”.
On to `CCCN(CCc1cccs1)[C@H]1CCc2c(O)cccc2C1` [Rotigotine], for which, in series [4] (0.72 mg/kg (calculated as rotigotine), 1 h), the concentration at 1 h is 12.1 ng/mL. The concentration at 1.5 h in series [4] (0.72 mg/kg (calculated as rotigotine), 1.5 h) was 7.25 ng/mL. Besides, the concentration at 2 h in series [4] (0.72 mg/kg (calculated as rotigotine), 2 h) was 4.71 ng/mL. Besides, the concentration at 0 h in series [4] (0.72 mg/kg, 0 h (before administration)) was found to be 0 ng/mL. For the same molecule, the concentration at 0.05 h in series [4] (0.72 mg/kg, 0.05 h) worked out at 82.5 ng/mL. Also, the concentration at 0.17 h in series [4] (0.72 mg/kg, 0.17 h) amounted to 43.8 ng/mL. Moreover, the concentration at 0.25 h in series [4] (0.72 mg/kg, 0.25 h) was 45.4 ng/mL. Also, the concentration at 0.5 h in series [4] (0.72 mg/kg, 0.5 h) came to 29 ng/mL. In series [4] (0.72 mg/kg, 4 h), the concentration at 4 h was 0.99 ng/mL. Besides, the concentration at 8 h in series [4] (0.72 mg/kg, 8 h) is 0.16 ng/mL. In addition, the concentration at 12 h in series [4] (0.72 mg/kg, 12 h) stood at 0.04 ng/mL. In series [5], the Oral bioavailability is 1%-5%.
